This test concerns Burkholderia pseudomallei. Kind of test: Antimicrobial activity against Burkholderia pseudomallei Bp227 harboring deleted (bpeAB-oprA)::FRT gene after 24 hrs by broth microdilution method. It is filed as functional.

We go through 1 sequence from ChEMBL document CHEMBL1275254 (2010).

As usually defined, the MIC is the smallest concentration in the dilution series that meets the test's criterion for growth inhibition. Higher therefore signals a less susceptible organism.

On to GENTAMICIN, for which inhibition of growth (MIC) required 256 µg/mL.
